Publication PMC12165799, “Antimicrobial peptide developed with machine learning sequence optimization targets drug resistant Staphylococcus aureus in mice” (The Journal of Clinical Investigation, 2025)
Where two headings read alike, the source gives them in different places.

Tests used:
S. aureus MW2 = assay: Minimal inhibitory concentration (MIC) assay, broth microdilution; format: cell-based, Staphylococcus aureus
Protocol: 300 Synthesis of peptides
302 Piscataway, NJ, USA).
305 Minimal inhibitory concentration (MIC) assay
We made serial dilutions of 10×
We determined the MIC using OD600
Accordingly, we added 150 mM NaCl,
319 established protocol (5).

[1] = tested on: VRSA (S. aureus VRS1) biofilm; assay: Biofilm viability assay on solid support (VRS1); format: cell-based, Staphylococcus aureus; settings: for Bacterial load of 24 hour established biofilm on solid membrane: S. aureus VRS1, 24 h in PBS
[2] = tested on: MRSA (S. aureus MW2) biofilm; assay: Biofilm viability assay on solid support (MW2); format: cell-based, Staphylococcus aureus; settings: for Bacterial load of 24 hour established biofilm on solid membrane: S. aureus MW2, 24 h in PBS
S. aureus MW2 membrane = assay: Propidium iodide-based membrane permeability; format: cell-based, Staphylococcus aureus; settings: S. aureus MW2, 60 minutes
Protocol: 484 min at room temperature in the dark based on a previously established protocol (8). We added 90
485 µl of the dye/bacteria mixture to 10 μl of serially diluted 10× peptide concentration in black, 96-
486 well plates (Cat. no. 3904, Corning, NY, USA) and incubated the plates for 1 hour at room
487 temperature. We measured the fluorescence with excitation and emission wavelengths of 485 nm
488 and 525 nm, respectively in endpoint assay mode using a SpectraMax i3x (Molecular Devices,
489 CA, USA) fluorescence reader.
490 Propidium iodide-based membrane permeability
491 We used a propidium iodide (Thermo Fisher Scientific, MA, USA) fluorescence-based
492 bacterial permeation assay to establish membrane-oriented interactions with the designed peptides
493 based on a previously established protocol (8). We prepared exponential phase S. aureus MW2
494 bacteria and diluted to OD600 = 0.4 in PBS. We added PI dye (final concentration = 2 µM) to the
495 bacteria in 1:10 serial dilutions in black, 96-well plates (Cat. no. 3904, Corning, NY, USA) and
496 incubated the plates for 1 hour at room temperature. We then measured the fluorescence with an
497 excitation wavelength of 584 nm and an emission wavelength of 620 nm in endpoint assay mode
498 using a SpectraMax i3x (Molecular Devices, CA, USA) fluorescence reader.
501 To determine the ATP leakage potential of the peptides, we employed a luciferase-based
502 assay(18). In brief, we washed exponential phase of S. aureus MW2 bacteria three times with PBS
503 (pH 7.4) and adjusted the washed cells to OD600 = 0.4 in PBS. Following treatment of the bacteria
504 with 32 µg/ml of CIT-8 peptide at 37°C for 30 min, we centrifuged the cells at 14,000× g for 5
505 min. We transferred 50 µl of each supernatant fraction to black, clear-bottom, 96-well plates

[3] = tested on: S. aureus MW2 biofilm formation; settings: for Biofilm formation, biomass (crystal violet), percentage of untreated / Biofilm formation, live-cell viability (XTT), percentage of untreated: 24 hours
Protocol: 349 Prevention of S. aureus MW2 biofilm formation
350 We evaluated the ability of the citropin 1.1-derived peptides to inhibit biofilm formation
351 following an established protocol with modifications (5). In short, we prepared exponential
352 cultures of S. aureus MW2 (adjusted to OD600 = 0.01) in TSB medium (supplemented with 0.2%
353 glucose) from overnight cultures. We added 90 µl of the bacterial culture to 10 µl of serially diluted
354 10× peptide solution in flat-bottomed 96-well polystyrene microtiter plates (Cat no. Corning 3595,
We used TSB medium containing
356 bacteria with water as the positive control, while TSB media with sterile water served as the
357 negative control. After incubation, we carefully removed the TSB medium and washed the wells
358 with PBS (Gibco, MD, USA) to remove loosely attached planktonic cells. We quantified the
359 biomass by staining the biofilms with crystal violet following an established protocol and
360 quantitated the concentration of peptide that inhibits 50% of biofilm formation (MBIC50)(8). We
361 measured the live cell count of the biofilms using XTT dye [2,3-bis(2-methyloxy-4-nitro-5-
362 sulfophenyl)-2H-tertazolium-5-carboxanilide] (ATCC, VA, USA).

[4] = 40 μg/mL, 24 h established biofilm

In the case of H-GLFKVIKKLLKVI-NH2 [CIT-8], the “MIC, Medium only” value (S. aureus MW2; S. aureus MW2, TSB) was 4 µg/mL, the “MIC + ZnSO4 (8 μM)” value (S. aureus MW2; S. aureus MW2, TSB + 8 μM ZnSO4) was 4 µg/mL and the “MIC + MgSO4 (1 mM)” value (S. aureus MW2; S. aureus MW2, TSB + 1 mM MgSO4) was 4 µg/mL. For the same substance, the “MIC + CaCl2 (2.5 mM)” value (S. aureus MW2; S. aureus MW2, TSB + 2.5 mM CaCl2) was 4 µg/mL, the “MIC + NaCl (150 mM)” value (S. aureus MW2; S. aureus MW2, TSB + 150 mM NaCl) was 4 µg/mL and the “MIC + human serum (5%)” value (S. aureus MW2; S. aureus MW2, TSB + 5% human serum) was 8 µg/mL. For the same substance, the “MIC + human serum (10%)” value (S. aureus MW2; S. aureus MW2, TSB + 10% human serum) was 8 µg/mL, the “Increase of MIC in human serum” value (S. aureus MW2; S. aureus MW2, 5%–10% human serum) was 2 fold and the “MIC SA” value (S. aureus MW2; S. aureus MW2, broth microdilution, TSB, 1 × 10^6 CFU/ml, 37°C 18 h, OD600, duplicate) was 4 µg/mL. For the same substance, the “Reduction of viable biofilm cells of VRSA in established biofilms” value ([1]; 40 μg/mL (abstract)) was 4 log10, the “Reduction of VRSA biofilm burden on solid membrane” value [1, 4] was 3.8 logs and the “Bacterial load of 24 hour established biofilm on solid membrane” value (shortened to “Bacterial load”) ([1]; 4 μg/ml, replicate 1) was 4000000. For the same substance, the “Bacterial load” value ([1]; 4 μg/ml, replicate 2) was 80000000, the “Bacterial load” value ([1]; 4 μg/ml, replicate 3) was 14000000 and the “Bacterial load” value ([1]; 4 μg/ml, replicate 4) was 40000000. The “Bacterial load” value ([1]; 4 μg/ml, replicate 5) was 2000000, the “Bacterial load” value ([1]; 4 μg/ml, replicate 6) was 20000000 and the “Bacterial load” value ([1]; 40 μg/ml, replicate 1) was 16000. The “Bacterial load” value ([1]; 40 μg/ml, replicate 2) was 6000, the “Bacterial load” value ([1]; 40 μg/ml, replicate 3) was 2400 and the “Bacterial load” value ([1]; 40 μg/ml, replicate 4) was 18000. The “Bacterial load” value ([1]; 40 μg/ml, replicate 5) was 12000, the “Bacterial load” value ([1]; 40 μg/ml, replicate 6) was 2200 and the “Reduction of viable biofilm cells of MRSA in established biofilms” value ([2]; 40 μg/mL (abstract)) was 3 log10. For the same substance, the “Reduction of MRSA biofilm burden on solid membrane” value [2, 4] was 2.2 logs, the “Bacterial load” value ([2]; 4 μg/ml, replicate 1) was 2200000 and the “Bacterial load” value ([2]; 4 μg/ml, replicate 2) was 2000000. The “Bacterial load” value ([2]; 4 μg/ml, replicate 3) was 3600000, the “Bacterial load” value ([2]; 4 μg/ml, replicate 4) was 14000000 and the “Bacterial load” value ([2]; 4 μg/ml, replicate 5) was 8000000. For the same substance, the “Bacterial load” value ([2]; 4 μg/ml, replicate 6) was 3800000, the “Bacterial load” value ([2]; 40 μg/ml, replicate 1) was 200000 and the “Bacterial load” value ([2]; 40 μg/ml, replicate 2) was 400000. For the same substance, the “Bacterial load” value ([2]; 40 μg/ml, replicate 3) was 800000, the “Bacterial load” value ([2]; 40 μg/ml, replicate 4) was 200000 and the “Bacterial load” value ([2]; 40 μg/ml, replicate 5) was 600000. For the same substance, the “Bacterial load” value ([2]; 40 μg/ml, replicate 6) was 200000, the “Propidium iodide fluorescence (membrane permeation)” value (S. aureus MW2 membrane) was “increased fluorescence compared with untreated controls” and the “Biofilm formation, biomass (crystal violet), percentage of untreated” value ([3]; 4 μg/ml, replicate 1) was 54.1113. The “Biofilm formation, live-cell viability (XTT), percentage of untreated” value ([3]; 4 μg/ml, replicate 1) was 32.0317, the “Biofilm formation, biomass (crystal violet), percentage of untreated” value ([3]; 4 μg/ml, replicate 2) was 76.6895 and the “Biofilm formation, live-cell viability (XTT), percentage of untreated” value ([3]; 4 μg/ml, replicate 2) was 22.3741. For the same substance, the “Biofilm formation, biomass (crystal violet), percentage of untreated” value ([3]; 4 μg/ml, replicate 3) was 101.649, the “Biofilm formation, live-cell viability (XTT), percentage of untreated” value ([3]; 4 μg/ml, replicate 3) was 54.6427 and the “Biofilm formation, biomass (crystal violet), percentage of untreated” value ([3]; 8 μg/ml, replicate 1) was 13.6231. The “Biofilm formation, live-cell viability (XTT), percentage of untreated” value ([3]; 8 μg/ml, replicate 1) was -0.6814, the “Biofilm formation, biomass (crystal violet), percentage of untreated” value ([3]; 8 μg/ml, replicate 2) was 7.383 and the “Biofilm formation, live-cell viability (XTT), percentage of untreated” value ([3]; 8 μg/ml, replicate 2) was -0.6073. For the same substance, the “Biofilm formation, biomass (crystal violet), percentage of untreated” value ([3]; 8 μg/ml, replicate 3) was 9.789, the “Biofilm formation, live-cell viability (XTT), percentage of untreated” value ([3]; 8 μg/ml, replicate 3) was -0.7036 and the “Biofilm formation, biomass (crystal violet), percentage of untreated” value ([3]; 16 μg/ml, replicate 1) was 8.5978. For the same substance, the “Biofilm formation, live-cell viability (XTT), percentage of untreated” value ([3]; 16 μg/ml, replicate 1) was -0.7406, the “Biofilm formation, biomass (crystal violet), percentage of untreated” value ([3]; 16 μg/ml, replicate 2) was 7.669 and the “Biofilm formation, live-cell viability (XTT), percentage of untreated” value ([3]; 16 μg/ml, replicate 2) was -0.7184. For the same substance, the “Biofilm formation, biomass (crystal violet), percentage of untreated” value ([3]; 16 μg/ml, replicate 3) was 8.622, the “Biofilm formation, live-cell viability (XTT), percentage of untreated” value ([3]; 16 μg/ml, replicate 3) was -0.5258 and the “Biofilm formation, biomass (crystal violet), percentage of untreated” value ([3]; 32 μg/ml, replicate 1) was 7.502. For the same substance, the “Biofilm formation, live-cell viability (XTT), percentage of untreated” value ([3]; 32 μg/ml, replicate 1) was -0.6814, the “Biofilm formation, biomass (crystal violet), percentage of untreated” value ([3]; 32 μg/ml, replicate 2) was 7.074 and the “Biofilm formation, live-cell viability (XTT), percentage of untreated” value ([3]; 32 μg/ml, replicate 2) was -0.6962. The “Biofilm formation, biomass (crystal violet), percentage of untreated” value ([3]; 32 μg/ml, replicate 3) was 7.812, the “Biofilm formation, live-cell viability (XTT), percentage of untreated” value ([3]; 32 μg/ml, replicate 3) was -0.5036 and the “Concentration killing 50% of biofilm cells during biofilm formation” value ([3]; XTT live-cell viability, 24 h) was 4 µg/mL. For the same substance, the “MBIC50 (biomass reduced by 50%)” value ([3]; crystal violet, 24 h) was 6 µg/mL.
